Assay results taken from patent publication US9181266B2, “2-piperidin-1-yl-acetamide compounds for use as tankyrase inhibitors” (NOVARTIS AG, priority 2011, dated 2015).
“And” between values parts separate entries of the source, which are not always exact repeats. Equal entries are not always repeated. Where two headings read alike, the source gives them in different places.

Tests used:
Human PARP1 = Human PARP1 (Homo sapiens (Human), UniProt P09874); assay: PARP1 autoparsylation assay (LC/MS detection of nicotinamide); assay type: biochemical; settings: 20 nM enzyme, 250 μM β-NAD+, 60 min
Description: (§1) The autoparsylation activity of the TNKS 1/2 or PARP1/2 enzymes was measured by the liquid chromatography-mass spectrometry (LC/MS) detection of nicotinamide as readout. Compound activity in inhibiting the TNKS and PARP autoparsylation was evaluated by IC50 measurements.

PARP2 = PARP2 (Mus musculus (Mouse), UniProt O88554); assay: PARP2 autoparsylation assay (LC/MS detection of nicotinamide); assay type: biochemical; settings: 20 nM enzyme, 250 μM β-NAD+, 60 min
Description: as §1

[1] = tested on: Wnt ligand-induced signaling in HEK293 cells; assay: Wnt-responsive Super-TOpFlash (STF) luciferase reporter gene assay; assay type: cell-based; settings: Homo sapiens, Wnt3A condition medium
Description: Cellular Reporter Gene Assay to Determine Compound Inhibition of Wnt Signaling Activity
Compound activity in inhibiting Wnt ligand-induced signaling was measured using a Wnt-responsive Super-TOpFlash (STF) luciferase reporter gene assay in HEK293 cells. On day 1 of the assay, cells were plated at a density of 8000 cells per well of 384-well plate in 25 μl medium containing 5% fetal bovine serum (FBS). On the second day, […] condition medium (CM) produced from mouse L cells was added to the cells to induce Wnt signaling, followed by addition of 5 μL of compounds each well in 10-point serial dilution. On the third day, the luciferase activity was measured by the Bright-Glo™ Luciferase Assay System following manufacture's protocol (Promega, E2620). The Inhibition was calculated as: (Maximum Wnt-induced signaling−Sample)/(Maximum Wnt-induced signaling−Background)*100. “Maximum Wnt-induced signaling” is the STF signal level induced by 20% Wnt3A CM without compound; and “Background” is the STF signal level without the addition of Wnt3A CM or compound.

[2] = tested on: Axin2 protein in SW480 cells; assay: Cellular ELISA assay of Axin2 protein stabilization; assay type: cell-based; settings: Homo sapiens, 24 hrs, read-out: Axin AC50
Description: Cellular ELISA Assay to Determine Compound Effect on Stabilizing the Axin2 Protein Compound activity in stabilizing the Axin2 protein was measured by Sandwich Enzyme-Linked Immuosorbent (ELISA) assay in the colorectal cell line SW480. 30,000 SW480 cells were seeded per well in 96-well plate and incubated overnight prior to compound treatment. […] Cells were then washed with 100 μL of cold Phosphate Buffer Saline (PBS), and lysed in 125 μl of cold 1× lysis buffer (Cell Signaling Technology, 9803) supplemented with Protease inhibitor (Roche, 11836170) and Phosphatase inhibitors (Sigma, P2850, P5726). For the ELISA assay, anti Axin-2 capture antibody (Strategic Diagnostics) antibody was diluted to a concentration of 1 μg/ml (1:1000) in Carbonate Coating buffer, pH 9.2 (Sigma, C3041-50CAP). […], of the diluted anti Axin-2 capture antibody per well was then used to coat the 96-well ELISA plate (Thermo Electron Corp., MicroLite 1 flat bottom plate #7571) overnight at 4° C. […] After blocking, plates were then washed three times with 300 μl/well of wash solution. 100 μL of prepared SW480 cell lysate was then added to each well and incubated at room temperature for 2 hours while shaking gently. After washing, 100 μL of Biotinylated anti-Axin2 antibody (CST, 2151) was added to each well and incubated room temperature for 2 hours. 100 μL of Streptavidin-HRP (R&D systems, DY998) diluted 1:200 in 1% BSA/PBS was then added in each well and incubate for 30 mins at R/T in the dark.

[3] = target: human tankyrase 1 PARP catalytic domain, TNKS1P (Homo sapiens (Human), UniProt O95271); assay: TNKS1 autoparsylation assay (LC/MS detection of nicotinamide); settings: read-out: TNKS1 AP IC50, 20 nM enzyme, 250 μM β-NAD+, 60 min
Description: Biochemical Assay to Determine Compound Inhibition of TNKS Enzyme Activity
The autoparsylation activity of the TNKS 1/2 or PARP1/2 enzymes was measured by the liquid chromatography-mass spectrometry (LC/MS) detection of nicotinamide as readout. Compound activity in inhibiting the TNKS and PARP autoparsylation was evaluated by IC50 measurements. […] For the background control wells, 10 μL of the 5× quenching solution per well was added prior to the addition of β-NAD^+. The % Inhibition was calculated as: (Control−Sample)/(Control−Background)*100.

[4] = target: tankyrase 2 protein PARP domain, TNKS2P (Homo sapiens (Human), UniProt Q9H2K2); assay: TNKS2 autoparsylation assay (LC/MS detection of nicotinamide); settings: read-out: TNKS2 AP IC50, 20 nM enzyme, 250 μM β-NAD+, 60 min
[5] = tested on: Non-small lung cancer ABC-1 cells; assay: Cellular proliferation assay (CellTiter-Glo); assay type: cell-based; settings: Homo sapiens, read-out: ABC-1 IC50
Description: Cellular Proliferation Assay to Determine Compound Inhibition of Cancer Cell Growth
Viable cells were measured after 3 days of compound treatment using the CellTiter-Glo assay (Promega, G7570). Assay was performed following the manufacture protocol.

[6] = 72 h, ABC-1 cells, 3 days of compound treatment

human tankyrase 1 PARP catalytic domain, TNKS1P, sequence (O95271 1112-1317): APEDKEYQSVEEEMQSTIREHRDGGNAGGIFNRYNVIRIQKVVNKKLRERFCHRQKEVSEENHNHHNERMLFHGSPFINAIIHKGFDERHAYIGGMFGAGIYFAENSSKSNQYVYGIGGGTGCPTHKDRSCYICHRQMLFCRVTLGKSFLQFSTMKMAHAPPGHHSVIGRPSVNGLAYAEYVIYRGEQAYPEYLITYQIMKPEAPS
PARP2, sequence (O88554 whole entry): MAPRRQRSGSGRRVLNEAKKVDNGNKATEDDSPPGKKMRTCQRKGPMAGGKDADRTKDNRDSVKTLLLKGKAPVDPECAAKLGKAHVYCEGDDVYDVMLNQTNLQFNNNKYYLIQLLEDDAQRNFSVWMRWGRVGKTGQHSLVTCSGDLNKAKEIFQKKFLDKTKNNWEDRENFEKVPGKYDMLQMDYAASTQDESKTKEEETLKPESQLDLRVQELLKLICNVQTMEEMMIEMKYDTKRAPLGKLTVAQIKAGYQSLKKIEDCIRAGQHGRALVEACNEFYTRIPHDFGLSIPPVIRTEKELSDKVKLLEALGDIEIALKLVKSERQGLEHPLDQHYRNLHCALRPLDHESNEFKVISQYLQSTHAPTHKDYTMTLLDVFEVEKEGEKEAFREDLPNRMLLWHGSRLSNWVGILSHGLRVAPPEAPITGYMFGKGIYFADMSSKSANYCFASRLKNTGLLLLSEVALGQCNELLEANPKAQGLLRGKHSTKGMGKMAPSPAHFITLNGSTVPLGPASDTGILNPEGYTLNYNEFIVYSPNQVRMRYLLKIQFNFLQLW
tankyrase 2 protein PARP domain, TNKS2P, sequence (Q9H2K2 959-1164): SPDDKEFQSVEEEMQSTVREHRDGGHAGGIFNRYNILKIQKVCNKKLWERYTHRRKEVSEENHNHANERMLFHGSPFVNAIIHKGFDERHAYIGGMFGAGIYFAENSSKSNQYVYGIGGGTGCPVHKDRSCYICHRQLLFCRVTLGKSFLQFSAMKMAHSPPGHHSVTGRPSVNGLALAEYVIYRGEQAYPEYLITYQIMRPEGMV
Human PARP1, sequence (P09874 whole entry): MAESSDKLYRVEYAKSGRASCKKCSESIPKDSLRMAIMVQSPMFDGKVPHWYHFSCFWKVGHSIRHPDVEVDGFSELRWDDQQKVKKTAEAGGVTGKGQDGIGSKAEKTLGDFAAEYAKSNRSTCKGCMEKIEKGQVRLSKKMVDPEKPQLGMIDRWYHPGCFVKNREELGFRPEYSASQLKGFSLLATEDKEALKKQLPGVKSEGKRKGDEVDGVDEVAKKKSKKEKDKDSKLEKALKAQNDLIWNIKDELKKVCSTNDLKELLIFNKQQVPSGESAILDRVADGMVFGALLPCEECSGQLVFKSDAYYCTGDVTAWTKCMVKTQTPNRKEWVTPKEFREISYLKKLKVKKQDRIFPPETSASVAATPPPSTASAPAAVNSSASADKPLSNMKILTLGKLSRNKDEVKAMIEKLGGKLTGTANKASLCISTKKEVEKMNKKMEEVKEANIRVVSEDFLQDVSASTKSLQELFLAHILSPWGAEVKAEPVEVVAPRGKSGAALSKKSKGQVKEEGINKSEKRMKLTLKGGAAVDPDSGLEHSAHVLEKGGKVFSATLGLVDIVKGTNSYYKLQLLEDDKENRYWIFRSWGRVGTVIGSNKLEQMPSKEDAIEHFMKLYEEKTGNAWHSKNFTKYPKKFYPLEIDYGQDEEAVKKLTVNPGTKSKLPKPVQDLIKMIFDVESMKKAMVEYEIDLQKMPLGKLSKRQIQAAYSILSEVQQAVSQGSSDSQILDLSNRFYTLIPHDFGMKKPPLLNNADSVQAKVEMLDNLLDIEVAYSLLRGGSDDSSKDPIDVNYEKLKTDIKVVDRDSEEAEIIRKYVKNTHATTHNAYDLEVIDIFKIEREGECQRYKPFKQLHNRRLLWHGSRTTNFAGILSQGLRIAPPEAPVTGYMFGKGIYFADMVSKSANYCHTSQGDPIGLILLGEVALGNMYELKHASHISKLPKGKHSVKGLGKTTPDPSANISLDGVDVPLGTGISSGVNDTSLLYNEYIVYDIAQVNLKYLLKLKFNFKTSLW

Compound | IC50 (Human PARP1) | IC50 (PARP2) | IC50 [1] | AC50 [2] | IC50 [3] | IC50 [4] | IC50 ([5]; ABC-1, 72 h) | IC50 [5, 6]
C[C@H](c1ccccc1)N(Cc1nc2c(c(=O)[nH]1)COCC2)C(=O)CN1CCC(C(=O)c2ccc(F)cc2)CC1 [Example 4, 2-[4-(4-Fluoro-benzoyl)-piperidin-1-yl]-N-(4-oxo-3,5,7,8-tetrahydro-4H-pyrano[4,3-c]pyrimidin-2-ylmethyl)-N—((R)-1-phenyl-ethyl)-acetamide] | > 19000 nM | > 19000 nM | 59 ± 17 nM | 363 ± 37 nM | 63 ± 5 nM | 16 ± 1 nM | – | –
COc1ccc(C(=O)C2CCN(CC(=O)N(Cc3nc4c(c(=O)[nH]3)CCCC4)CC3CC3)CC2)cc1 [Example 8, N-(Cyclopropylmethyl)-2-(4-(4-methoxybenzoyl)piperidin-1-yl)-N-((4-oxo-3,4,5,6,7,8-hexahydroquinazolin-2-yl)methyl)acetamide] | – | 9140 ± 210 nM | 3 ± 1 nM | 13 ± 3 nM | – | – | 22 nM | –
COc1ccc(C(=O)C2CCN(CC(=O)NCc3nc4c(c(=O)[nH]3)CCCC4)CC2)cc1 [Example 9, 2-(4-(4-Methoxybenzoyl)piperidin-1-yl)-N-((4-oxo-3,4,5,6,7,8-hexahydroquinazolin-2-yl)methyl)acetamide] | – | 243 ± 66 nM | 3 ± 3 nM | 9 ± 2 nM | – | – | 41 nM | –
O=C(c1ccc(F)cc1)C1CCN(CC(=O)N(Cc2cccc(F)c2)Cc2nc3c(c(=O)[nH]2)COCC3)CC1 [Example 19, 2-(4-(4-Fluorobenzoyl)piperidin-1-yl)-N-(3-fluorobenzyl)-N-((4-oxo-4,5,7,8-tetrahydro-3H-pyrano[4,3-d]pyrimidin-2-yl)methyl)acetamide] | > 19000 nM | > 19000 nM | 92 ± 77 nM | 779 ± 83 nM | 84 ± 7 nM | 21 ± 1 nM | – | –
C[C@@H](c1ccccc1)N(Cc1nc2c(c(=O)[nH]1)COCC2)C(=O)CN1CCC(C(=O)c2ccc(F)cc2)CC1 [Example 23, 2-[4-(4-Fluoro-benzoyl)-piperidin-1-yl]-N-(4-oxo-3,5,7,8-tetrahydro-4H-pyrano[4,3-d]pyrimidin-2-ylmethyl)-N—((S)-1-phenyl-ethyl)-acetamide] | > 19000 nM | > 19000 nM | 189 ± 76 nM | – | 209 ± 3 nM | 50 ± 1 nM | – | –
CC[C@H](C)CN(Cc1nc2c(c(=O)[nH]1)COCC2)C(=O)CN1CCC(C(=O)c2ccc(F)cc2)CC1 [Example 25, 2-[4-(4-Fluoro-benzoyl)-piperidin-1-yl]-N—((S)-2-methyl-butyl)-N-(4-oxo-3,5,7,8-tetrahydro-4H-pyrano[4,3-d]pyrimidin-2-ylmethyl)-acetamide] | > 19000 nM | > 19000 nM | 30 ± 9 nM | 179 ± 26 nM | 37 ± 4 nM | 13 ± 1 nM | – | –
C#CCN(Cc1nc2c(c(=O)[nH]1)COCC2)C(=O)CN1CCC(C(=O)c2ccc(F)cc2)CC1 [Example 27, 2-(4-(4-Fluorobenzoyl)piperidin-1-yl)-N-((4-oxo-4,5,7,8-tetrahydro-3H-pyrano[4,3-d]pyrimidin-2-yl)methyl)-N-(prop-2-ynyl)acetamide] | > 19000 nM | > 19000 nM | 53 ± 45 nM | 3640 ± 660 nM | 43 ± 1 nM | 14 ± 1 nM | – | –
O=C(c1ccc(F)cc1)C1CCN(CC(=O)N(Cc2nc3c(c(=O)[nH]2)COCC3)C[C@@H]2CCCO2)CC1 [Example 28, (S)-2-(4-(4-Fluorobenzoyl)piperidin-1-yl)-N-((4-oxo-4,5,7,8-tetrahydro-3H-pyrano[4,3-d]pyrimidin-2-yl)methyl)-N-((tetrahydrofuran-2-yl)methyl)acetamide] | > 19000 nM | > 19000 nM | 15 ± 4 nM | 101 ± 19 nM | 24 ± 1 nM | 10 ± 1 nM | – | –
N#CCN(Cc1nc2c(c(=O)[nH]1)COCC2)C(=O)CN1CCC(C(=O)c2ccc(F)cc2)CC1 [Example 43, N-Cyanomethyl-2-[4-(4-fluoro-benzoyl)-piperidin-1-yl]-N-(4-oxo-3,5,7,8-tetrahydro-4H-pyrano[4,3-d]pyrimidin-2-ylmethyl)-acetamide] | > 19000 nM and 42900 nM | – | 362 nM | – | > 19000 nM | – | – | –
O=C(CN1CCC(c2noc3cc(F)ccc23)CC1)NCc1nc2c(c(=O)[nH]1)COCC2 [Example 51, 2-(4-(6-Fluorobenzo[d]isoxazol-3-yl)piperidin-1-yl)-N-((4-oxo-4,5,7,8-tetrahydro-3H-pyrano[4,3-d]pyrimidin-2-yl)methyl)acetamide] | 7630 ± 320 nM | 3090 ± 390 nM | – | – | 207 ± 17 nM | 43 ± 2 nM | – | –
O=C(CN1CCC(n2c(=O)[nH]c3ccccc32)CC1)NCc1nc2c(c(=O)[nH]1)COCC2 [Example 82, 2-(4-(2-Oxo-2,3-dihydro-1H-benzo[d]imidazol-1-yl)piperidin-1-yl)-N-((4-oxo-4,5,7,8-tetrahydro-3H-pyrano[4,3-d]pyrimidin-2-yl)methyl)acetamide] | 32400 ± 4600 nM | 2900 ± 900 nM | 787 ± 23 nM | – | 222 ± 2 nM | 39 ± 3 nM | – | –
O=C(CN1CCC(C(=O)c2ccc3c(c2)OCO3)CC1)NCc1nc2c(c(=O)[nH]1)COCC2 [Example 92, 2-[4-(Benzo[1,3]dioxole-5-carbonyl)-piperidin-1-yl]-N-(4-oxo-3,5,7,8-tetrahydro-4H-pyrano[4,3-c]pyrimidin-2-ylmethyl)-acetamide] | – | – | 9.1 ± 1.2 nM | 154 ± 25 nM | 129 ± 1 nM | 43 nM | – | 346 nM
COc1ccc(C(=O)C2CCN(CC(=O)NCc3nc4c(c(=O)[nH]3)COCC4)CC2)cc1Cl [Example 94, 2-[4-(3-Chloro-4-methoxy-benzoyl)-piperidin-1-yl]-N-(4-oxo-3,5,7,8-tetrahydro-4H-pyrano[4,3-d]pyrimidin-2-ylmethyl)-acetamide] | – | – | 2.4 ± 0.3 nM | 11 ± 2 nM | 29 ± 3 nM | 10.5 ± 0.7 nM | – | 16 nM
CCOc1ccc(C(=O)C2CCN(CC(=O)NCc3nc4c(c(=O)[nH]3)COCC4)CC2)cc1F [Example 95, 2-[4-(4-Ethoxy-3-fluoro-benzoyl)-piperidin-1-yl]-N-(4-oxo-3,5,7,8-tetrahydro-4H-pyrano[4,3-c]pyrimidin-2-ylmethyl)-acetamide] | – | – | 6.6 ± 0.7 nM | 26 ± 7 nM | 38 ± 3 nM | 16 ± 5 nM | – | 32 ± 5 nM
COc1ccc(C(=O)C2CCN(CC(=O)NCc3cc4c(c(=O)o3)COCC4)CC2)cc1 [Example 96, 2-[4-(4-methoxy-benzoyl)-piperidin-1-yl]-N-(1-oxo-5,8-dihydro-1H,6H-pyrano[3,4-c]pyran-3-ylmethyl)-acetamide] | – | – | 13 ± 3 nM | 24 ± 8 nM | 328 ± 1 nM | 133 ± 31 nM | – | 65 ± 23 nM
COc1ccc(C(=O)C2CCN(CC(=O)NCc3cc4c(c(=O)[nH]3)COCC4)CC2)cc1 [Example 97, 2-[4-(4-Methoxy-benzoyl)-piperidin-1-yl]-N-(8-oxo-3,4,7,8-tetrahydro-1H-pyrano[3,4-c]pyridin-6-ylmethyl)-acetamide] | 7500 ± 400 nM | 1150 ± 9 nM | – | 266 ± 58 nM | 100 ± 10 nM | 27 ± 1 nM | – | –
CC(c1nc2c(c(=O)[nH]1)COCC2)N(C)C(=O)CN1CCC(C(=O)c2ccc(F)cc2)CC1 (stereo not shown) [Example 98, 2-(4-(4-Fluorobenzoyl)piperidin-1-yl)-N-methyl-N-(1-(4-oxo-4,5,7,8-tetrahydro-3H-pyrano[4,3-d]pyrimidin-2-yl)ethyl)acetamide] | – | – | 17 ± 8 nM | 72 ± 15 nM | 4100 ± 500 nM | 723 ± 10 nM | – | 258 nM
